From the NIST ThermoML archive (doi:10.1021/je100190e)
± gives the expanded uncertainty stated by the source.

Experiment: mn = molality of the nth substance listed, in mol/kg
Details: 101 kPa, Liquid

N=C(N)NCCC[C@H](N)C(=O)O [L-arginine] + O
mass density [kg/m3]
Details | 303.15 K | 308.15 K | 313.15 K | 318.15 K | 323.15 K
m1 = 0.0302 | 997.1 ± 1 | 995.5 ± 1.1 | 993.7 ± 1.1 | 991.7 ± 1.2 | 989.5 ± 1.2
m1 = 0.0607 | 998.6 ± 1 | 997 ± 1.1 | 995.2 ± 1.1 | 993.2 ± 1.2 | 991 ± 1.2
m1 = 0.0914 | 1000.1 ± 1 | 998.5 ± 1.1 | 996.7 ± 1.1 | 994.7 ± 1.2 | 992.5 ± 1.2
m1 = 0.122 | 1001.5 ± 1 | 999.9 ± 1.1 | 998.1 ± 1.1 | 996.1 ± 1.2 | 993.9 ± 1.2
m1 = 0.1533 | 1003 ± 1 | 1001.4 ± 1.1 | 999.6 ± 1.1 | 997.6 ± 1.2 | 995.4 ± 1.2

N[C@@H](Cc1c[nH]cn1)C(=O)O [L-histidine] + O
mass density [kg/m3]
Details | 303.15 K | 308.15 K | 313.15 K | 318.15 K | 323.15 K
m1 = 0.0303 | 997.3 ± 1 | 995.7 ± 1.1 | 993.9 ± 1.1 | 991.9 ± 1.2 | 989.7 ± 1.2
m1 = 0.0606 | 998.9 ± 1 | 997.3 ± 1.1 | 995.5 ± 1.1 | 993.5 ± 1.2 | 991.3 ± 1.2
m1 = 0.0913 | 1000.6 ± 1 | 999 ± 1.1 | 997.2 ± 1.1 | 995.2 ± 1.2 | 993 ± 1.2
m1 = 0.1221 | 1002.2 ± 1 | 1000.6 ± 1.1 | 998.8 ± 1.1 | 996.8 ± 1.2 | 994.6 ± 1.2
m1 = 0.1526 | 1003.8 ± 1 | 1002.2 ± 1.1 | 1000.4 ± 1.1 | 998.4 ± 1.2 | 996.2 ± 1.2

Cl.NCCCC[C@H](N)C(=O)O [L-lysine monohydrochloride] + O
mass density [kg/m3]
Details | 303.15 K | 308.15 K | 313.15 K | 318.15 K | 323.15 K
m1 = 0.0302 | 997.3 ± 1 | 995.7 ± 1.1 | 993.9 ± 1.1 | 991.9 ± 1.2 | 989.7 ± 1.2
m1 = 0.0606 | 999 ± 1 | 997.4 ± 1.1 | 995.6 ± 1.1 | 993.6 ± 1.2 | 991.4 ± 1.2
m1 = 0.0913 | 1000.7 ± 1 | 999.1 ± 1.1 | 997.3 ± 1.1 | 995.3 ± 1.2 | 993.1 ± 1.2
m1 = 0.1224 | 1002.4 ± 1 | 1000.8 ± 1.1 | 999 ± 1.1 | 997 ± 1.2 | 994.8 ± 1.2
m1 = 0.1536 | 1004.1 ± 1 | 1002.5 ± 1.1 | 1000.7 ± 1.1 | 998.7 ± 1.2 | 996.4 ± 1.2

CC(=O)[O-].CC(=O)[O-].[Ca+2] [calcium acetate] + O
m1 = 1
Details | mass density [kg/m3]
303.15 K | 1075.1 ± 1.2
308.15 K | 1073.2 ± 1.3
313.15 K | 1071.6 ± 1.3
318.15 K | 1069.3 ± 1.4
323.15 K | 1067.1 ± 1.4

CC(=O)[O-].[K+] [potassium ethanoate] + O
m1 = 1
Details | mass density [kg/m3]
303.15 K | 1039.7 ± 1.2
308.15 K | 1038.1 ± 1.2
313.15 K | 1036.1 ± 1.3
318.15 K | 1033.5 ± 1.3
323.15 K | 1032 ± 1.4

CC(=O)[O-].[Na+] [sodium ethanoate] + O
m1 = 1
Details | mass density [kg/m3]
303.15 K | 1032.9 ± 1.2
308.15 K | 1031.8 ± 1.2
313.15 K | 1029.3 ± 1.3
318.15 K | 1027.5 ± 1.3
323.15 K | 1025.4 ± 1.3

O [water] + Cl.NCCCC[C@H](N)C(=O)O
Details | mass density [kg/m3]
323.15 K, m2 = 0 | 988 ± 1.2

O [water] + N=C(N)NCCC[C@H](N)C(=O)O
Details | mass density [kg/m3]
323.15 K, m2 = 0 | 988 ± 1.2

O [water] + N[C@@H](Cc1c[nH]cn1)C(=O)O
Details | mass density [kg/m3]
323.15 K, m2 = 0 | 988 ± 1.2
